Reference: publication PMC3694096, “Development of Novel In Vivo Chemical Probes to Address CNS Protein Kinase Involvement in Synaptic Dysfunction” (PLoS ONE, 2013)
Where two headings read alike, the source gives them in different places.

Assays:
[1] = molecular target: T1, Abl (Homo sapiens, UniProt P00519); assay: Kinome profiler screen; assay type: biochemical; conditions: at 20,000 nM inhibitor; kinase activity remaining
T1 construct: purchased Millipore KinaseProfiler

[2] = molecular target: T2, Abl(m) (Mus musculus, UniProt P00520); assay: Kinome profiler screen; assay type: biochemical; conditions: at 20,000 nM inhibitor; kinase activity remaining
T2 construct: purchased Millipore KinaseProfiler

[3] = molecular target: T3, ALK (Homo sapiens, UniProt Q9UM73); assay: Kinome profiler screen; assay type: biochemical; conditions: at 20,000 nM inhibitor; kinase activity remaining
T3 construct: purchased Millipore KinaseProfiler

[4] = molecular target: T4, Aurora-A (Homo sapiens, UniProt O14965); assay: Kinome profiler screen; assay type: biochemical; conditions: at 20,000 nM inhibitor; kinase activity remaining
T4 construct: purchased Millipore KinaseProfiler

[5] = molecular target: T5, Blk(m) (Mus musculus, UniProt P16277); assay: Kinome profiler screen; assay type: biochemical; conditions: at 20,000 nM inhibitor; kinase activity remaining
T5 construct: purchased Millipore KinaseProfiler

[6] = molecular target: T6, CaMKIIβ (Homo sapiens, UniProt Q13554); assay: Kinome profiler screen; assay type: biochemical; conditions: at 20,000 nM inhibitor; kinase activity remaining
T6 construct: purchased Millipore KinaseProfiler

[7] = molecular target: T7, CK1δ (Homo sapiens, UniProt P48730); assay: Kinome profiler screen; assay type: biochemical
T7 construct: purchased Millipore

[8] = molecular target: T8, DDR2 (Homo sapiens, UniProt Q16832); assay: Kinome profiler screen; assay type: biochemical
T8 construct: purchased Millipore
T8 sequence (Q16832 22-855): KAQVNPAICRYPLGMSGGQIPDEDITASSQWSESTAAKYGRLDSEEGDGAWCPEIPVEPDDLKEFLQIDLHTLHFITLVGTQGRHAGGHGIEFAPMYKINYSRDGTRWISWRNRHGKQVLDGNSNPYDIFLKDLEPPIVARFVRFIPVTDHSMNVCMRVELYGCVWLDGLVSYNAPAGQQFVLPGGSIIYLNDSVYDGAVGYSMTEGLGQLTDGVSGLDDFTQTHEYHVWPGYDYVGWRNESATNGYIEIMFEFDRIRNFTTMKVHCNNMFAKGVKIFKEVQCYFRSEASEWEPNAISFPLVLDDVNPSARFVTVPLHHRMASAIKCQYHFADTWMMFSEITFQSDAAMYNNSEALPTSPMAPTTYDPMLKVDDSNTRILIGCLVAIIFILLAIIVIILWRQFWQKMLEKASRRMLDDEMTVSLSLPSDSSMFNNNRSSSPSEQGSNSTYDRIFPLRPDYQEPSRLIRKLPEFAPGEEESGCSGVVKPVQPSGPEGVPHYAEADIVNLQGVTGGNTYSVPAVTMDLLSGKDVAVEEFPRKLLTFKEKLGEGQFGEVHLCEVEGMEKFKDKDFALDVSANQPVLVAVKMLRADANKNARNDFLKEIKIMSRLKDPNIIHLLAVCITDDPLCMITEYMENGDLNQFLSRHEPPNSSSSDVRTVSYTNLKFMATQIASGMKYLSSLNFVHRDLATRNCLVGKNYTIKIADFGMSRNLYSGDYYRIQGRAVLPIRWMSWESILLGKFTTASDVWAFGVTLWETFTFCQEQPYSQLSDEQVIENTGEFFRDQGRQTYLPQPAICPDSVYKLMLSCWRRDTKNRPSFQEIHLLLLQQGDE

[9] = molecular target: T9, EphA8 (Homo sapiens, UniProt P29322); assay: Kinome profiler screen; assay type: biochemical; conditions: at 20,000 nM inhibitor; kinase activity remaining
T9 construct: purchased Millipore KinaseProfiler

[10] = molecular target: T10, Fer (Homo sapiens, UniProt P16591); assay: Kinome profiler screen; assay type: biochemical; conditions: at 20,000 nM inhibitor; kinase activity remaining
T10 construct: purchased Millipore KinaseProfiler

[11] = molecular target: T11, FGFR4 (Homo sapiens, UniProt P22455); assay: Kinome profiler screen; assay type: biochemical; conditions: at 20,000 nM inhibitor; kinase activity remaining
T11 construct: purchased Millipore KinaseProfiler

[12] = molecular target: T12, Flt3(D835Y) (Homo sapiens, UniProt P36888, D835Y); assay: Kinome profiler screen; assay type: biochemical; conditions: at 20,000 nM inhibitor; kinase activity remaining
T12 construct: purchased Millipore KinaseProfiler

[13] = molecular target: T13, Fms(Y969C) (Homo sapiens, UniProt P07333, Y969C); assay: Kinome profiler screen; assay type: biochemical; conditions: at 20,000 nM inhibitor; kinase activity remaining
T13 construct: purchased Millipore KinaseProfiler

[14] = molecular target: T14, IGF-1R, activated (Homo sapiens, UniProt P08069); assay: Kinome profiler screen; assay type: biochemical; conditions: at 20,000 nM inhibitor; kinase activity remaining
T14 construct: purchased Millipore KinaseProfiler

[15] = molecular target: T15, Lck activated (Homo sapiens, UniProt P06239); assay: Kinome profiler screen; assay type: biochemical; conditions: at 20,000 nM inhibitor; kinase activity remaining
T15 construct: purchased Millipore KinaseProfiler

[16] = molecular target: T16, Met(M1268T) (Homo sapiens, UniProt P08581, M1250T); assay: Kinome profiler screen; assay type: biochemical; conditions: at 20,000 nM inhibitor; kinase activity remaining
T16 construct: purchased Millipore KinaseProfiler

[17] = molecular target: T17, Met(Y1248H) (Homo sapiens, UniProt P08581, Y1230H); assay: Kinome profiler screen; assay type: biochemical; conditions: at 20,000 nM inhibitor; kinase activity remaining
T17 construct: purchased Millipore KinaseProfiler

[18] = molecular target: T18, MKK7β (Homo sapiens, UniProt O14733); assay: Kinome profiler screen; assay type: biochemical; conditions: at 20,000 nM inhibitor; kinase activity remaining
T18 construct: purchased Millipore KinaseProfiler

[19] = molecular target: T19, MST2 (Homo sapiens, UniProt Q13188); assay: Kinome profiler screen; assay type: biochemical; conditions: at 20,000 nM inhibitor; kinase activity remaining
T19 construct: purchased Millipore KinaseProfiler

[20] = molecular target: T20, MST3 (Homo sapiens, UniProt Q9Y6E0); assay: Kinome profiler screen; assay type: biochemical; conditions: at 20,000 nM inhibitor; kinase activity remaining
T20 construct: purchased Millipore KinaseProfiler

[21] = molecular target: T21, NEK3 (Homo sapiens, UniProt P51956); assay: Kinome profiler screen; assay type: biochemical; conditions: at 20,000 nM inhibitor; kinase activity remaining
T21 construct: purchased Millipore KinaseProfiler

[22] = molecular target: T22, PI3 Kinase (p110α (E545K)/p85α)(m) (Mus musculus, UniProt P42337, E545K); assay: Kinome profiler screen; assay type: biochemical; conditions: at 20,000 nM inhibitor; kinase activity remaining
T22 construct: purchased Millipore KinaseProfiler

[23] = molecular target: T23, Pim-2 (Homo sapiens, UniProt Q9P1W9); assay: Kinome profiler screen; assay type: biochemical; conditions: at 20,000 nM inhibitor; kinase activity remaining
T23 construct: purchased Millipore KinaseProfiler

[24] = molecular target: T24, PKD2 (Homo sapiens, UniProt Q9BZL6); assay: Kinome profiler screen; assay type: biochemical; conditions: at 20,000 nM inhibitor; kinase activity remaining
T24 construct: purchased Millipore KinaseProfiler

[25] = molecular target: T25, SRPK1 (Homo sapiens, UniProt Q96SB4); assay: Kinome profiler screen; assay type: biochemical
T25 construct: purchased Millipore KinaseProfiler

[26] = molecular target: T26, TAO2 (Homo sapiens, UniProt Q9UL54); assay: Kinome profiler screen; assay type: biochemical; conditions: at 20,000 nM inhibitor; kinase activity remaining
T26 construct: purchased Millipore KinaseProfiler

[27] = molecular target: T27, Txk (Homo sapiens, UniProt P42681); assay: Kinome profiler screen; assay type: biochemical; conditions: at 20,000 nM inhibitor; kinase activity remaining
T27 construct: purchased Millipore KinaseProfiler

[28] = molecular target: T28, WNK2 (Homo sapiens, UniProt Q9Y3S1); assay: Kinome profiler screen; assay type: biochemical; conditions: at 20,000 nM inhibitor; kinase activity remaining
T28 construct: purchased Millipore KinaseProfiler

[29] = molecular target: T29, ZIPK (Homo sapiens, UniProt O43293); assay: Kinome profiler screen; assay type: biochemical; conditions: at 20,000 nM inhibitor; kinase activity remaining
T29 construct: purchased Millipore KinaseProfiler

[30] = tested on: >290 mammalian kinases; assay: Hierarchal large-scale kinome screen, overall outcome; assay type: biochemical; conditions: overall outcome in words
[31] = tested on: visual, motor and motivation deficits; assay: Visible platform test; assay type: in vivo, C57BL/6J mice; conditions: control test
[32] = tested on: sensory perception of electric shock; assay: Sensory threshold assessment; assay type: in vivo, C57BL/6J mice; conditions: control test
[33] = at 20,000 nM inhibitor, kinase activity remaining, read-out: % Activity

T27 sequence (P42681 whole entry): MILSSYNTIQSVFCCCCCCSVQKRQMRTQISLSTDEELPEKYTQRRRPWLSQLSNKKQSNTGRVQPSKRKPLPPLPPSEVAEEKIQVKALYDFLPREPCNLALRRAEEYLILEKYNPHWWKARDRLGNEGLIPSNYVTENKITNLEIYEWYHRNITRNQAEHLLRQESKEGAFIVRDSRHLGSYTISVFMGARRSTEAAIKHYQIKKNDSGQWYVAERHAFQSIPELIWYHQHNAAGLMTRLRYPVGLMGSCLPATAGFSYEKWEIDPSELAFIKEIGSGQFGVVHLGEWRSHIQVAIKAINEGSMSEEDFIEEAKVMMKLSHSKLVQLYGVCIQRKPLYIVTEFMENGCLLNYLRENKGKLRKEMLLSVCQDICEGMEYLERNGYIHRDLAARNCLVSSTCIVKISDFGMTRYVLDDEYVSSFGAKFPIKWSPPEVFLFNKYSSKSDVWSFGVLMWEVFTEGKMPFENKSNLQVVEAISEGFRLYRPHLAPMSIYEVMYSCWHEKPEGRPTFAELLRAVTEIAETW
T11 sequence (P22455 22-802): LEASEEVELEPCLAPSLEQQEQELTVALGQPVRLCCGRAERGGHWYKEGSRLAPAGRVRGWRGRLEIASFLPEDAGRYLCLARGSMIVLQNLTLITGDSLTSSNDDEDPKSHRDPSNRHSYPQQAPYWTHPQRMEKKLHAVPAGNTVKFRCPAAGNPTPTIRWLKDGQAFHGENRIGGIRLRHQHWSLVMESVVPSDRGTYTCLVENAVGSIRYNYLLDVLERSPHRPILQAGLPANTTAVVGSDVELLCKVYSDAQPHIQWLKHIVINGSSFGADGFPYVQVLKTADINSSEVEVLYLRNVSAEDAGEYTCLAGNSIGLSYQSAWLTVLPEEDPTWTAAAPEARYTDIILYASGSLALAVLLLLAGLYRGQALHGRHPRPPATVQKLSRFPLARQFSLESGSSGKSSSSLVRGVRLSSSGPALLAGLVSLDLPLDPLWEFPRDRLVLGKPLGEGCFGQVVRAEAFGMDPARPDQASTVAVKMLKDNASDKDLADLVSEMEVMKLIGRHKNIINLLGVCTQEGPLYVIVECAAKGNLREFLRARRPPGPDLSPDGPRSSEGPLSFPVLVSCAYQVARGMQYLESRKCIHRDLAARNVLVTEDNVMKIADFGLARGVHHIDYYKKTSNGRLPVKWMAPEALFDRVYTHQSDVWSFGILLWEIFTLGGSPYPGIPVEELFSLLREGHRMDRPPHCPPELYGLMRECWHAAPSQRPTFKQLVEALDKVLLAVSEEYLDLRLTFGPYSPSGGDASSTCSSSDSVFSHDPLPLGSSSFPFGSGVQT
T13 sequence (P07333 20-972 Y969C): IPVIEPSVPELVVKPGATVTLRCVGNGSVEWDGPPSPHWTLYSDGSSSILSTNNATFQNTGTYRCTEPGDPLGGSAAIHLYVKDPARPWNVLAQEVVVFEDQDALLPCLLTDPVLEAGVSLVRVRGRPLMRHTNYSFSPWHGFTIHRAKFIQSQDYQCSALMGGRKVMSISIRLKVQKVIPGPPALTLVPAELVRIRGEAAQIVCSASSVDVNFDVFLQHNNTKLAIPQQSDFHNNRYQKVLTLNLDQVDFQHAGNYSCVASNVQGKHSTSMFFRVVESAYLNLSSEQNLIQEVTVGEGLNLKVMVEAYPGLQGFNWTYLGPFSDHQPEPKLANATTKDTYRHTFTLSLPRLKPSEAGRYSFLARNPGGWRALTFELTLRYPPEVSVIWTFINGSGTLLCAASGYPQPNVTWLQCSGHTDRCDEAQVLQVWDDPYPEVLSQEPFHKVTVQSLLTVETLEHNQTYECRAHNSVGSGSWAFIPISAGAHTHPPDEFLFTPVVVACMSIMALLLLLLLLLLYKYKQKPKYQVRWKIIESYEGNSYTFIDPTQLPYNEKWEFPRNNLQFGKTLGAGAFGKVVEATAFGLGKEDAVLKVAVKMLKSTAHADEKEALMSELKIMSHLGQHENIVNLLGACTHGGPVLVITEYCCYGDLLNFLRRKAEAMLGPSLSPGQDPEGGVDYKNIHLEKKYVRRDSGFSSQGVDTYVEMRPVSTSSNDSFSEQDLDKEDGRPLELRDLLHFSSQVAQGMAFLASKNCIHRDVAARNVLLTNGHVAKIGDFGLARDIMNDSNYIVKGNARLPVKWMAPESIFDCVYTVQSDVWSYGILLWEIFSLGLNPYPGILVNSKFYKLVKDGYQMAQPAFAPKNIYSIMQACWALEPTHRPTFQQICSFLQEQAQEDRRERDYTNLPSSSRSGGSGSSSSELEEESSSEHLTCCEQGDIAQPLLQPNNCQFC
T21 sequence (P51956 whole entry): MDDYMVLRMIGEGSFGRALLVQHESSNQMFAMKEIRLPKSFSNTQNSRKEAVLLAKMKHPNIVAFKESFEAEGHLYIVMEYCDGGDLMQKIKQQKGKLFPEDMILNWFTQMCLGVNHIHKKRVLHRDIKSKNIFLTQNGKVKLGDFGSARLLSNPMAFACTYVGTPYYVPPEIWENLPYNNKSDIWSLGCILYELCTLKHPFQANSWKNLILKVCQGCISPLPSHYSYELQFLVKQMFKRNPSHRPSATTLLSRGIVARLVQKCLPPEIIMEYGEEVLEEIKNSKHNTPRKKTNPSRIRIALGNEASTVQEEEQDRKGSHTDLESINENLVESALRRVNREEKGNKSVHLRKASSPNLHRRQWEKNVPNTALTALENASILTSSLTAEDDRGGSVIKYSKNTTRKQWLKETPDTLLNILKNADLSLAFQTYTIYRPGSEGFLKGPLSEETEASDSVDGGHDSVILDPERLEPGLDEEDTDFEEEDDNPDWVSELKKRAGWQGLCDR
T18 sequence (O14733 whole entry): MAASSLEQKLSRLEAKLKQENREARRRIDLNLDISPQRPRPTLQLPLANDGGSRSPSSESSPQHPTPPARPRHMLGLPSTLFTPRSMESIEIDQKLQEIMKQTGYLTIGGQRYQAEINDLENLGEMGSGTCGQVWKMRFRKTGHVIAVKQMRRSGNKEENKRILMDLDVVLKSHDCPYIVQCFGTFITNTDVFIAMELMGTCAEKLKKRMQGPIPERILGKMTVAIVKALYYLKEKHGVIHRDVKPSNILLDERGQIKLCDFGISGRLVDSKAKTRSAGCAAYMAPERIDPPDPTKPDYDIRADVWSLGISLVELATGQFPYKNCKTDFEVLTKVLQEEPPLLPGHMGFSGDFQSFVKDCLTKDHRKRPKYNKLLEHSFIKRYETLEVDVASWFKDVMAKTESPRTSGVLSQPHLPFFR
T14 sequence (P08069 31-1367): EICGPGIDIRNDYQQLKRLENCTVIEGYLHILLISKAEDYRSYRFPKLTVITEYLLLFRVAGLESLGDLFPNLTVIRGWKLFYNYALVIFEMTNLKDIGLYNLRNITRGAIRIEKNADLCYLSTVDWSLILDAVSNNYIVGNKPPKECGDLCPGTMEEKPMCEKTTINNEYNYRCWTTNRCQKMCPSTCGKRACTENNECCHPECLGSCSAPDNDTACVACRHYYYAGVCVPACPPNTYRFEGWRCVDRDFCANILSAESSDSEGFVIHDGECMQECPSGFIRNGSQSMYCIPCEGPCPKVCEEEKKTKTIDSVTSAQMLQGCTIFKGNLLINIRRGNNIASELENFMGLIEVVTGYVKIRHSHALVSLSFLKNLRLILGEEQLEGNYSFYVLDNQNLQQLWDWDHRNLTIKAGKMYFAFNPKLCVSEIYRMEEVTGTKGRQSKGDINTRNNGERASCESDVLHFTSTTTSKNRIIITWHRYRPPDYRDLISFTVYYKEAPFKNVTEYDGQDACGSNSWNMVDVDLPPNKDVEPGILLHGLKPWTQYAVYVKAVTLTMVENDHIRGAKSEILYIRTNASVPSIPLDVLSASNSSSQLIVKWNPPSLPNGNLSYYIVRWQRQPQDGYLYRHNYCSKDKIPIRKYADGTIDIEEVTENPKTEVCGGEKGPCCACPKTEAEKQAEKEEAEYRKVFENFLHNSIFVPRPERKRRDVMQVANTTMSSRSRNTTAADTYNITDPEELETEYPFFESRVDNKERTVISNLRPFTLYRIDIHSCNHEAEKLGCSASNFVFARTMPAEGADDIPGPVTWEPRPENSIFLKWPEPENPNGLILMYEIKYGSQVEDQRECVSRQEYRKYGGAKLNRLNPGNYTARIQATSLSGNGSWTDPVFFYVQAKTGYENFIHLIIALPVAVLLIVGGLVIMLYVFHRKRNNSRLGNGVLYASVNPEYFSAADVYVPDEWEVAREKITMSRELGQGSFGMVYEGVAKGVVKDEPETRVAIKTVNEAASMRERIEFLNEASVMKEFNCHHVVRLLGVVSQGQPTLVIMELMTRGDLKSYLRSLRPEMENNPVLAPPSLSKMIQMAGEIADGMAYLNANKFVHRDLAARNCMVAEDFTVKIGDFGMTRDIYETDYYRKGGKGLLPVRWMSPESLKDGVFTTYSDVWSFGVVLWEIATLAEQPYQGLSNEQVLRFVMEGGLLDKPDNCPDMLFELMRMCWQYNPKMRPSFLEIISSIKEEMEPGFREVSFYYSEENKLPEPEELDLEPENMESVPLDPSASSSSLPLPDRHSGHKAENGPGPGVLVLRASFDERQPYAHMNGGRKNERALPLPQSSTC
T19 sequence (Q13188 whole entry): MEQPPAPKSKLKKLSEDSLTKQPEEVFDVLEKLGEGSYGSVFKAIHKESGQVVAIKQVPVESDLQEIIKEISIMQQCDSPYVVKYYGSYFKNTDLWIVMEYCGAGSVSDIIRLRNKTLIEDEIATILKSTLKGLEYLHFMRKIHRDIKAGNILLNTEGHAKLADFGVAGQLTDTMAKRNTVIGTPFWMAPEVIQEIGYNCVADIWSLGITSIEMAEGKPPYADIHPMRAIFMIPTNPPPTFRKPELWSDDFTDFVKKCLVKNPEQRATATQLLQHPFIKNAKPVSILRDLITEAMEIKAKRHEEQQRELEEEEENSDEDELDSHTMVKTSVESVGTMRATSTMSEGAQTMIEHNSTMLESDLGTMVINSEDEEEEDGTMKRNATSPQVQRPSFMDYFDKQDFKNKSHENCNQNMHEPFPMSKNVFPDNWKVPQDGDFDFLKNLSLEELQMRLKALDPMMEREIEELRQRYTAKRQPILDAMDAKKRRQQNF

Row | Structure (SMILES) | activity at 20 µM [1] [%] | activity at 20 µM [2] [%] | activity at 20 µM [3] [%] | activity at 20 µM [4] [%] | activity at 20 µM [5] [%] | activity at 20 µM [6] [%] | activity at 20 µM [7] [%] | activity at 20 µM [9] [%] | activity at 20 µM [10] [%] | activity at 20 µM [11] [%] | activity at 20 µM [12] [%] | activity at 20 µM [13] [%] | activity at 20 µM [14] [%] | activity at 20 µM [15] [%] | activity at 20 µM [16] [%] | activity at 20 µM [17] [%] | activity at 20 µM [18] [%] | activity at 20 µM [19] [%] | activity at 20 µM [20] [%] | activity at 20 µM [21] [%] | also measured
1 | CN(C)c1cc(-c2ccncc2)c(-c2ccc3ccccc3c2)nn1 [MW108, N, N-dimethyl-6-(naphthalen-2-yl)-5-(pyridin-4-yl)pyridazin-3-amine] | 99 | 89 | 105 | 118 | 88 | 96 | 33 | 95 | 97 | 89 | 90 | 100 | 104 | 70 | 91 | 88 | 122 | 98 | 98 | 98 | IC50 [8]: 2860 nM; activity at 20 µM [8]: 11%; activity at 20 µM [22]: 99%; activity at 20 µM [23]: 93%; activity at 20 µM [24]: 78%; activity at 20 µM [25]: 114%; activity at 20 µM [26]: 81%; activity at 20 µM [27]: 98%; activity at 20 µM [28]: 101%; activity at 20 µM [29]: 93%; Large Scale Kinome Screen [30]: only p38αMAPK as a potential target; Large Scale Kinome Screen ([30]; listed as MW01-11-108SRM): negative except for p38αMAPK; visible platform test, speed and time to the platform [31]: No difference was detected between groups; sensory threshold [32]: Sensory threshold was not affected regardless of treatment
2 | CN(C)c1cc(-c2ccncc2)c(-c2cccc3ccccc23)nn1 [MW181, N,N-dimethyl-6-(naphthalen-1-yl)-5-(pyridin-4-yl)pyridazin-3-amine] | 125 | 88 | 107 | 113 | 100 | 108 | 89 | 91 | 92 | 98 | 100 | 91 | 87 | 84 | 95 | 103 | 116 | 105 | 98 | 116 | activity at 20 µM [8, 33]: 86%; activity at 20 µM [22]: 99%; activity at 20 µM [23]: 103%; activity at 20 µM [24]: 78%; activity at 20 µM [25, 33]: 103%; activity at 20 µM [26]: 94%; activity at 20 µM [27]: 98%; activity at 20 µM [28]: 92%; activity at 20 µM [29]: 106%; Large Scale Kinome Screen [30]: p38αMAPK, p38βMAPK, and the atypical p38 kinase NLK as primary targets; Large Scale Kinome Screen ([30]; listed as MW01-10-181SRM): negative except for the following MAPKs; visible platform test, speed and time to the platform [31]: No difference was detected between groups; sensory threshold [32]: Sensory threshold was not affected regardless of treatment
